# Experimental data published in patent US20260241026A1, “THERAPEUTIC METHOD FOR LOW-DRUG-SENSITIVITY CANCERS BY ADMINISTRATION OF ANTI-MUC1 ANTIBODY-DRUG CONJUGATE” (priority 2023, published 2026).
# Experiments:
# [1] = system: lung cancer PDX model (NIBIO-NS1); assay: Antitumor test in lung cancer patient-derived xenograft model NIBIO-NS1; format: in vivo, female nude mice
# From the text: NIBIO-NS1 was obtained as a lung cancer PDX model from the National Institute of Biomedical Innovation. A frozen tumor section of NIBIO-NS1 was thawed and subcutaneously transplanted to 5-week old female NSG mice (NOD. Cg-Prkdc Il2rg<tm1Wjl>/SzJ: purchased from Jackson Laboratory Japan, Inc.) using a trocar. Grown tumor was collected, cut into small pieces, and transplanted again to female nude mice (CAnN. Cg-Foxn1nu/CrlCrlj: purchased from Jackson Laboratory Japan, Inc.) using a trocar, followed by extended growth.
# The female nude mice with transplanted NIBIO-NS1 were grouped 10 days after transplantation when their average tumor volume became about 157 mm^3. […] Six mice per group were used in groups 1 and 2, and 12 mice were used in group 3.
# [2] = system: human breast cancer cell line HCC70; assay: Antitumor test in model with transplanted breast cancer cell line HCC70 (Example 3); format: in vivo, female nude mouse
# Protocol: The mice were grouped 18 days after transplantation when their average tumor volume became about 165 mm^3. […] ABS buffer was administered to a Vehicle administration group. Six mice per group were used in all the groups.
# [3] = system: bladder cancer PDX model (NIBIO-K071); assay: Antitumor test in bladder cancer patient-derived xenograft model NIBIO-K071; format: in vivo, female nude mice
# From the text: NIBIO-[…] was obtained as a bladder cancer patient-derived xenograft model (PDX model) from the National Institute of Biomedical Innovation. A frozen tumor section of NIBIO-[…] was thawed and subcutaneously transplanted to 4- to 6-week old female NSG mice (NOD. Cg-Prkdc Il2rg<tm1Wjl>/SzJ: purchased from Charles River Laboratories Japan, Inc.) using a trocar. Grown tumor was collected, cut into small pieces, and transplanted again to female NSG mice or female nude mice (CAnN. Cg-Foxn1nu/CrlCrlj: purchased from Charles River Laboratories Japan, Inc.) using a trocar, followed by extended growth. TA-MUC1-, Nectin-4-, and TROP2-positive findings were confirmed in the tumor of this model by immunohistochemical staining (IHC). An estimated tumor volume (ETV) was calculated as described below. Estimated tumor volume (volume,mm^3)=Major axis (mm)×Minor axis (mm)^2/2 The female nude mice with transplanted NIBIO-[…] were grouped 25 days after transplantation when their average tumor volume became about 200 mm^3. […] ABS buffer was administered to a Vehicle administration group. Six mice per group were used in all the groups. After initial administration, body weights and tumor sizes were measured twice a week, and estimated tumor volumes were calculated.
# [4] = 10 mg/kg, QW × two doses (Days 0, 7)
# [5] = Day 21, 10 mg/kg, QW × 2, intravenous
substance,measurement,setting,value
"datopotamab deruxtecan [TROP2-DXd ADC, reference compound]",tumor course after regrouping of the TROP2-DXd ADC administration group,"[1]; 10 mg/kg on Day 11 to tumors pre-treated with TROP2-DXd ADC, up to Day 31 (TA-MUC1-DXd ADC) or Day 21 (TROP2-DXd ADC)",grew continuously
same,tumor regression effect,"[1]; Day 11, 10 mg/kg on Day 0, NIBIO-NS1",no tumor regression
same,ETV (mm^3) Mean,"[1]; Day 11, 10 mg/kg, Day 0, intravenous, NIBIO-NS1",453 mm^3
"sacituzumab govitecan [TROP2-SN38 ADC, reference compound]",tumor regression,[2]; [4],no tumor regression
same,ETV (mm^3) Mean,[2]; [5],361 mm^3
same,tumor regression,[3]; [4],did not reach tumor regression
same,ETV (mm^3) Mean,[3]; [5],383 mm^3
"enfortumab vedotin [Nectin-4-MMAE ADC, reference compound]",tumor regression,"[3]; 3 mg/kg, QW × three doses (Days 0, 7, 14)",did not reach tumor regression
same,ETV (mm^3) Mean,"[3]; Day 21, 3 mg/kg, QW × 3, intravenous",772 mm^3
